Assay results published in US6500817B1, “Thiazolyl urea derivatives and their utilization as antiviral agents” (Bayer Aktiengesellschaft, priority 1999, dated 2002).

SMILES | melting point
CCOc1ccc(NC(=O)N(CCc2ccccc2)c2nc(C)c(S(=O)(=O)NCc3ccccc3)s2)cc1 | 156 °C
CCOc1ccc(NC(=O)N(CC2COc3ccccc3O2)c2nc(C)c(S(=O)(=O)NC3CC3)s2)cc1 (centres unmarked) | 170 °C
CCOc1ccc(NC(=O)N(CCN(C)C)c2nc(CC)c(S(=O)(=O)NC)s2)cc1 | 208 °C
CCOc1ccc(NC(=O)N(Cc2ccncc2)c2nc(C)c(S(=O)(=O)NC)s2)cc1 | 198 °C
CCOc1ccc(NC(=O)N(CCCNC(=O)OC(C)(C)C)c2nc(C)c(S(=O)(=O)NCC(F)(F)F)s2)cc1 [135] | 161 °C
Cc1nc(N(CCN(C)C)C(=O)Nc2ccc(-c3ccccc3)cc2)sc1S(=O)(=O)N(C)C(=O)Nc1ccc(-c2ccccc2)cc1 | 190 °C
CCCOc1ccc(NC(=O)N(C)C2=CC(C)=C(S(N)(=O)=O)C2)cc1 | 200 °C
CCOc1ccc(NC(=O)N(c2nc(C)c(S(=O)(=O)N(C)C)s2)C(C)CC)cc1 (centres unmarked) | 130 °C
CCOc1ccc(NC(=O)N(CCOc2ccccc2)c2nc(C)c(S(=O)(=O)NC)s2)cc1 | 158 °C
CNS(=O)(=O)c1sc(NC(=O)Nc2ccc(-c3ccccc3)cc2)nc1C | 199 °C
CN(C(=O)Nc1ccc(Oc2ccccc2)cc1)c1nc(Cl)c(S(=O)(=O)N(C)C)s1 | 127 °C
CCOc1ccc(NC(=O)N(CCCNC(=O)OC(C)(C)C)c2nc(C)c(S(=O)(=O)NCC(F)(F)F)s2)cc1 [136] | 150 °C
CCCCOc1ccc(NC(=O)N(C)c2nc(Cl)c(S(=O)(=O)N(C)C)s2)cc1 | 140 °C
CN(C(=O)Nc1ccc(OC(F)(F)C(F)F)cc1)c1nc(Cl)c(S(=O)(=O)N(C)C)s1 | 168 °C
CCOc1ccc(NC(=O)N(Cc2cccnc2)c2nc(C)c(S(N)(=O)=O)s2)cc1 | 193 °C
CCCN(C(=O)Nc1ccc(-c2ccccc2)cc1)c1nc(C)c(S(=O)(=O)NCC(F)(F)F)s1 | 146 °C

Second part, the compound after the results:

melting point | SMILES
200 °C | CCOc1ccc(NC(=O)N(Cc2ccncc2)c2nc(C)c(S(=O)(=O)NC3CC3)s2)cc1
162 °C | C=CCN(C(=O)Nc1ccc(OCC)cc1)c1nc(C)c(S(=O)(=O)NC)s1
169 °C | CCc1nc(N(CCCO)C(=O)Nc2ccc(N3CCOCC3)cc2)sc1S(=O)(=O)NC
161 °C | CCc1nc(N(CCCO)C(=O)Nc2ccc(N3CCCC3)cc2)sc1S(=O)(=O)NC
183 °C | CCOc1ccc(NC(=O)N(C)c2nc(Cl)c(S(=O)(=O)NC3CC3)s2)cc1
164 °C | CCOc1ccc(NC(=O)N(CCOC)c2nc(C)c(S(=O)(=O)NC3CC3)s2)cc1
193 to 195 °C | Cc1nc(N(C)C(=O)Nc2ccc(N3CCC3)cc2)sc1S(=O)(=O)N(C)C
181 °C | CNS(=O)(=O)c1sc(N(CCCO)C(=O)Nc2ccc(N3CCOCC3)cc2)nc1C
215 °C | CCOc1ccc(NC(=O)N(C)c2nc(Cl)c(S(=O)(=O)N(C)C)s2)cc1
184 to 186 °C | Cc1nc(N(C)C(=O)Nc2ccc(-c3ncon3)cc2)sc1S(=O)(=O)N(C)C
164 °C | CCOc1ccc(NC(=O)N(CCCCO)c2nc(C)c(S(=O)(=O)NC)s2)cc1
210 °C | CN(C(=O)Nc1ccc(N2CCOCC2)cc1)c1nc(Cl)c(S(=O)(=O)N(C)C)s1 [9]
172 °C | Cc1nc(N(C)C(=O)Nc2ccc(N3CCOCC3)cc2)sc1S(=O)(=O)N(C)CCn1ccnn1
150 °C | CCOc1ccc(NC(=O)N(CC2CCCO2)c2nc(C)c(S(=O)(=O)NC)s2)cc1 (centres unmarked)
164 °C | CCOc1ccc(NC(=O)N(C)c2nc(C)c(S(=O)(=O)NCC3CC3)s2)cc1
205 °C | Cc1nc(N(C)C(=O)Nc2ccc(N3CCCC3)cc2)sc1S(=O)(=O)NCC1CC1
217 °C | CCc1nc(N(C)C(=O)Nc2ccc(N3CCCC3)cc2)sc1S(=O)(=O)NC
228 °C | CNS(=O)(=O)c1sc(N(C)C(=O)Nc2ccc(N3CCOCC3)cc2)nc1Cl
209 °C | Cc1nc(N(C)C(=O)Nc2ccc(N3CCCC3)cc2)sc1S(N)(=O)=O
